Numbered stars: 1 amine (or outer) side, 2 acyl side, 3 side chain; on linkers, the order of the positions; unused ones are H or OH. Bridge positions count the residues as written; N and C are the ends. Square brackets hold non-standard residues; d marks the D form. Peptide text beside a SMILES is read from it. * marks the point of attachment. hPhe(3,5-F2-4-CF3) = N[C@@H](CCc1cc(F)c(C(F)(F)F)c(F)c1)C(=O)O; hPhe(3-Cl-4-CF3) = N[C@@H](CCc1ccc(C(F)(F)F)c(Cl)c1)C(=O)O; hPhe(3-F,4-CF3) = N[C@@H](CCc1ccc(C(F)(F)F)c(F)c1)C(=O)O; NMePhe(4-CF3) = CN[C@@H](Cc1ccc(C(F)(F)F)cc1)C(=O)O; NMeAbu(4,4,4-F3) = CN[C@@H](CC(F)(F)F)C(=O)O; NMePhe(3-Br) = CN[C@@H](Cc1cccc(Br)c1)C(=O)O; NMePhe(4-Me) = CN[C@@H](Cc1ccc(C)cc1)C(=O)O; NMedβ3hAla = C[C@H](CC(=O)[*:2])N(C)[*:1]; NMeGly(cPent) = CN[C@H](C(=O)O)C1CCCC1; Phe(2-Cl) = N[C@@H](Cc1ccccc1Cl)C(=O)O; Phe(2-OMe) = COc1ccccc1C[C@H](N)C(=O)O; Phe(3-I) = N[C@@H](Cc1cccc(I)c1)C(=O)O; Pro(4,4-F2) = O=C(O)[C@@H]1CC(F)(F)CN1; Phe(2-F) = N[C@@H](Cc1ccccc1F)C(=O)O; NMeGly(cBu) = CN[C@H](C(=O)O)C1CCC1; NMeY = CN[C@@H](Cc1ccc(O)cc1)C(=O)O; NMeCha = CN[C@@H](CC1CCCCC1)C(=O)O; NMeChg = CN[C@H](C(=O)O)C1CCCCC1; NMeD = CN[C@@H](CC(=O)O)C(=O)O; NMeL = CN[C@@H](CC(C)C)C(=O)O; NMeV = CN[C@H](C(=O)O)C(C)C; d(β3hA) = C[C@@H](N)CC(=O)O; NMeA = CN[C@@H](C)C(=O)O; NMeAib = CNC(C)(C)C(=O)O; Nle = CCCC[C@H](N)C(=O)O; Piperidide = C1CCN(*)CC1; Pra = C#CC[C@H](N)C(=O)O; Pyrrolidide = C1CCN(*)C1; Ac5c = NC1(C(=O)O)CCCC1; Aze = O=C(O)[C@@H]1CCN1; Sar = CNCC(=O)O
tested on: Human pancreatic cancer cell line AsPC-1 (G12D mutation Kras); assay: AsPC-1 cell growth inhibition (AsPC-1 CGI); format: cell-based; details: read-out: AsPC-1 cell growth inhibition, 50% growth inhibitory concentration (IC50 value); 96 hours, CellTiter-Glo, values classified in ranges
Experimental: Test compounds were serially dilated with dimethyl sulfoxide, and 200 nL was then dispensed to a U-bottom 96-well plate using Labcyte Echo. […] The cell suspension was dispensed to a. plate containing a test compound at 100 μL per well and incubated at 37° C. in a 5% carbon dioxide gas incubator. 96 hours later, 80 μL of CellTiter-Glo (Promega) was added to each well and fluorescence was measured.

**Q.** Which IC50 does the source give for `CC[C@H](C)[C@@H]1NC(=O)[C@H](C)N(C)C(=O)C[C@@H](C)N(C)C(=O)[C@H](CC(C)C)NC(=O)C(C)(C)N(C)C(=O)[C@H](CC(C)C)NC(=O)[C@H](CCc2ccc(C(F)(F)F)c(Cl)c2)NC(=O)CN(C)C(=O)[C@H](Cc2ccc(C(F)(F)F)cc2)N(C)C(=O)[C@@H]2CCN2C(=O)CN(C)C1=O` [Compound 1392] (cyclo([Aze][NMePhe(4-CF3)][Sar][hPhe(3-Cl-4-CF3)]L[NMeAib]L[NMedβ3hAla][NMeA]I[Sar])) here?
**A.** Its IC50 is greater than 500 nM.

**Q.** For `C#CC[C@@H]1NC(=O)[C@H](CC(C)C)N(C)C(=O)C[C@@H](C)NC(=O)[C@H](CC(C)C)N(C)C(=O)C2(CCCC2)NC(=O)[C@@H]2CCCN2C(=O)[C@H](CCc2ccc(C(F)(F)F)c(F)c2)NC(=O)CN(C)C(=O)[C@H](CC2CCCCC2)N(C)C(=O)CN(C)C(=O)CN(C)C1=O` [Compound 1533] (cyclo([Ac5c][NMeL][d(β3hA)][NMeL][Pra][Sar][Sar][NMeCha][Sar][hPhe(3-F,4-CF3)]P)), which IC50 is on record?
**A.** Its IC50 is greater than 500 nM.

**Q.** Which IC50 does the source give for `CC[C@H](C)[C@@H]1NC(=O)[C@H](CC(C)C)N(C)C(=O)C[C@@H](C(=O)N2CCCCC2)N(C)C(=O)[C@H](CC(C)C)NC(=O)C(C)(C)N(C)C(=O)[C@H](Cc2ccccc2Cl)NC(=O)[C@H](Cc2cccc(I)c2)NC(=O)CN(C)C(=O)[C@H](Cc2ccc(C)cc2)N(C)C(=O)[C@@H]2CCN2C(=O)CN(C)C1=O` [Compound 781] ([NMeL]I[Sar][Aze][NMePhe(4-Me)][Sar][Phe(3-I)][Phe(2-Cl)][NMeAib]L[NMeD]-Piperidide; lactam N-11) here?
**A.** The IC50 was greater than 500 nM.

**Q.** How did the IC50 turn out when `CC[C@H](C)[C@@H]1NC(=O)[C@H](CC(C)C)N(C)C(=O)C[C@@H](C(=O)N2CCCCC2)N(C)C(=O)[C@H](CC(C)C)NC(=O)C(C)(C)N(C)C(=O)[C@H](Cc2ccccc2OC)NC(=O)[C@H](Cc2cccc(I)c2)NC(=O)CN(C)C(=O)[C@H](Cc2ccc(C)cc2)N(C)C(=O)CN(C)C(=O)CN(C)C1=O` [Compound 1100] ([NMeL]I[Sar][Sar][NMePhe(4-Me)][Sar][Phe(3-I)][Phe(2-OMe)][NMeAib]L[NMeD]-Piperidide; lactam N-11) was run?
**A.** Its IC50 is greater than 500 nM.

**Q.** Which IC50 does the source give for `CC[C@H](C)[C@@H]1NC(=O)[C@H](CC(C)C)N(C)C(=O)C[C@@H](C(=O)N2CCCC2)N(C)C(=O)[C@H](CC(C)C)NC(=O)C(C)(C)N(C)C(=O)[C@H](CC(C)C)NC(=O)[C@H](CCc2ccc(C(F)(F)F)c(F)c2)NC(=O)CN(C)C(=O)[C@H](CC2CCCCC2)N(C)C(=O)CN(C)C(=O)CN(C)C1=O` [Compound 312] ([NMeL]I[Sar][Sar][NMeCha][Sar][hPhe(3-F,4-CF3)]L[NMeAib]L[NMeD]-Pyrrolidide; lactam N-11) here?
**A.** Its IC50 is greater than 500 nM.

**Q.** For `CC[C@H](C)[C@@H]1NC(=O)[C@H](CC(F)(F)F)N(C)C(=O)C[C@@H](C(=O)N2CCCC2)N(C)C(=O)[C@H](C2CCCCC2)N(C)C(=O)C2(CCCC2)NC(=O)[C@@H]2CC(F)(F)CN2C(=O)[C@H](CCc2cc(F)c(C(F)(F)F)c(F)c2)NC(=O)CN(C)C(=O)[C@H](Cc2ccc(C(F)(F)F)cc2)N(C)C(=O)CN(C)C(=O)CN(C)C1=O` [Compound 1303] ([NMeAbu(4,4,4-F3)]I[Sar][Sar][NMePhe(4-CF3)][Sar][hPhe(3,5-F2-4-CF3)][Pro(4,4-F2)][Ac5c][NMeChg][NMeD]-Pyrrolidide; lactam N-11), which IC50 is on record?
**A.** The IC50 was no more than 20 nM.

**Q.** Which IC50 does the source give for `CCCC[C@@H]1NC(=O)[C@H](Cc2ccccc2F)NC(=O)CN(C)C(=O)[C@H](Cc2ccc(OC)cc2)N(C)C(=O)CN(C)C(=O)CN(C)C(=O)[C@H]([C@@H](C)CC)NC(=O)[C@H](CC(C)C)N(C)C(=O)C[C@@H](C(=O)N2CCCCC2)N(C)C(=O)[C@H](CC(C)C)NC(=O)[C@H](Cc2ccc(OC)cc2)N(C)C1=O` [Compound 681] ([NMeL]I[Sar][Sar][NMeY](Me)[Sar][Phe(2-F)][Nle][NMeY](Me)L[NMeD]-Piperidide; lactam N-11) here?
**A.** Its IC50 is greater than 500 nM.

**Q.** Which IC50 does the source give for `CC[C@H](C)[C@@H]1NC(=O)[C@H](CC(C)C)N(C)C(=O)C[C@@H](C)NC(=O)[C@H](C(C)C)N(C)C(=O)C2(CCCC2)NC(=O)[C@@H]2CCCN2C(=O)[C@H](CCc2ccc(C(F)(F)F)c(Cl)c2)NC(=O)CN(C)C(=O)[C@H](Cc2cccc(Br)c2)N(C)C(=O)CN(C)C(=O)CN(C)C1=O` [Compound 1587] (cyclo([Ac5c][NMeV][d(β3hA)][NMeL]I[Sar][Sar][NMePhe(3-Br)][Sar][hPhe(3-Cl-4-CF3)]P)) here?
**A.** Its IC50 is greater than 500 nM.

**Q.** `CC[C@H](C)[C@@H]1NC(=O)[C@H](CC(C)C)N(C)C(=O)C[C@@H](C(=O)N(C)C)N(C)C(=O)[C@H](C2CCCC2)N(C)C(=O)C2(CCCC2)NC(=O)[C@@H]2CCCN2C(=O)[C@H](CCc2ccc(C(F)(F)F)c(Cl)c2)NC(=O)CN(C)C(=O)[C@H](Cc2ccc(C)cc2)N(C)C(=O)[C@@H]2CCN2C(=O)[C@H](C)NC1=O` [Compound 363] ([NMeL]IA[Aze][NMePhe(4-Me)][Sar][hPhe(3-Cl-4-CF3)]P[Ac5c][NMeGly(cPent)][NMeD]-NMe2; lactam N-11) was tested. Which IC50 did it give?
**A.** The IC50 was no more than 20 nM.

**Q.** How did the IC50 turn out when `CC[C@H](C)[C@@H]1NC(=O)[C@H](CC(C)C)N(C)C(=O)C[C@@H](C(=O)N2CCCCC2)N(C)C(=O)[C@H](C2CCCCC2)N(C)C(=O)C2(CCCC2)NC(=O)[C@@H]2CCCN2C(=O)[C@H](CCc2ccc(C(F)(F)F)c(Cl)c2)NC(=O)CN(C)C(=O)[C@H](C2CCC2)N(C)C(=O)CN(C)C(=O)CN(C)C1=O` [Compound 936] ([NMeL]I[Sar][Sar][NMeGly(cBu)][Sar][hPhe(3-Cl-4-CF3)]P[Ac5c][NMeChg][NMeD]-Piperidide; lactam N-11) was run?
**A.** Its IC50 is greater than 500 nM.

— patent publication US20240148821A1, “PHARMACEUTICAL USE OF CYCLIC PEPTIDE COMPOUND” (CHUGAI SEIYAKU KABUSHIKI KAISHA, priority 2021, published 2024)
